A value given as a limit tells only on which side of the number the result lay.

Assay [1] can be described thus: Antiproliferative activity against human SW620 cells assessed as cell growth inhibition after 48 hrs by MTT assay. The class given is functional, cell-based. To be noted: SW-620, 48 h.
The next assay relates to HT-29. The assay is described as follows: Antiproliferative activity against human HT-29 cells assessed as cell growth inhibition after 48 hrs by MTT assay. The class given is functional, cell-based. To be noted: HT-29, 48 h.
Assay [2] is described as follows: Antiproliferative activity against human MGC803 cells assessed as cell growth inhibition after 48 hrs by MTT assay. The class given is functional, cell-based. The following applies: MGC-803, 48 h.
A short description of assay [3]: Antiproliferative activity against human […] cells assessed as cell growth inhibition after 48 hrs by MTT assay. The assay is classed as functional, cell-based.
Another assay deals with Sonic hedgehog protein (Mus musculus, UniProt Q62226). The assay is described as follows: Inhibition of hedgehog signalling in mouse NIH3T3-Gli-luc cells after 48 hrs by dual luciferase reporter assay. The assay is classed as cell-based.
The target in another assay is Protein smoothened (Homo sapiens, UniProt Q99835). Put plainly: Displacement of boron-dipyrromethene-cyclopamine from human smoothened receptor expressed in HEK293 cells incubated for 4 hrs by hSMO-BC binding assay. The assay is classed as cell-based.
Sequence of Protein smoothened (Q99835 whole entry): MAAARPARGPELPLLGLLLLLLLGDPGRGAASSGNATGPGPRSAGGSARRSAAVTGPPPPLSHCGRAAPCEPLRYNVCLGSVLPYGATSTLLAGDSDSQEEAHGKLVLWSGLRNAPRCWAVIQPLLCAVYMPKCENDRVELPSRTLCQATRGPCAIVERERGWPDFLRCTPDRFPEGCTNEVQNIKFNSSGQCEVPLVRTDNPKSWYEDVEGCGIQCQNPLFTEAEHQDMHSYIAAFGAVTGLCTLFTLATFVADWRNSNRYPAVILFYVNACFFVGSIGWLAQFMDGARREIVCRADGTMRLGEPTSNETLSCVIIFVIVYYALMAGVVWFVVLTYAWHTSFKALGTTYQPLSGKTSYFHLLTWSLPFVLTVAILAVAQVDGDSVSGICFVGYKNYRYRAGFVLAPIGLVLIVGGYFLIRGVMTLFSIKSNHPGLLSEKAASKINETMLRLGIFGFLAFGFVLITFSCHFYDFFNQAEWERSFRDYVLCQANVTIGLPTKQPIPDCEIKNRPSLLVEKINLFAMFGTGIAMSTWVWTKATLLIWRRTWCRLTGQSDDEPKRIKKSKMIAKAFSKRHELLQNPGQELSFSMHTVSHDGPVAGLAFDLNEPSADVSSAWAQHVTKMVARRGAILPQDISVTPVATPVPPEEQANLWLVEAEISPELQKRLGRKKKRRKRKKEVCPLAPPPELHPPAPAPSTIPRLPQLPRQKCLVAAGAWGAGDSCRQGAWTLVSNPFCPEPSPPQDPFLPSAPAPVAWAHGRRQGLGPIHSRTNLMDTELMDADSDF

Sequence of Sonic hedgehog protein (Q62226 25-198 limits assumed): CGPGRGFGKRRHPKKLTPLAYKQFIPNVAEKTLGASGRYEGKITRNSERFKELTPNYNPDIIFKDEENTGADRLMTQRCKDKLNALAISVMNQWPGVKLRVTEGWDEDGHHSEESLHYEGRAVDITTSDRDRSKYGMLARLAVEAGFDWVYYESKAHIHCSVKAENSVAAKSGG

Take `COc1cc(C(=O)NC(=S)Nc2cccc(NC(=O)c3ccccc3)c2)cc(OC)c1OC`: the concentration for half-maximal inhibition (IC50) in assay [1] stood at 21.2 µM; in the assay on HT-29 it was 6.61 µM; in assay [2] it was 8.62 µM; in assay [3], 13.8 µM; against Sonic hedgehog protein, 0.65 µM; at Protein smoothened, 0.281 µM.

Turning to `Cc1ccc(NC(=O)NC(=O)c2ccc(OCc3ccccc3F)cc2)cc1-c1nc2ccccc2[nH]1`, the IC50 in assay [1] is 4.11 µM; in the assay with HT-29, 0.76 µM; in assay [2], 2.52 µM; in assay [3], 1.83 µM.

For the compound `Cc1ccc(NC(=O)NC(=O)c2ccc(OCc3cccc(F)c3)cc2)cc1-c1nc2ccccc2[nH]1`, the IC50 in assay [1] is 39.6 µM; with HT-29, 38.2 µM; in assay [2] it was 44.8 µM; in assay [3], 53 µM.

In the case of `Cc1ccc(NC(=O)NC(=O)c2ccc(OCc3ccccc3)cc2)cc1-c1nc2ccccc2[nH]1`, the half-maximal inhibitory concentration (IC50) in assay [1] came to 30.1 µM; in the assay with HT-29 it was 16.4 µM; in assay [2] it was 39.4 µM; in assay [3] it was 35.1 µM.

For the compound `Cc1ccc(NC(=O)NC(=O)c2ccc(OCc3ccc(C(F)(F)F)cc3)cc2)cc1-c1nc2ccccc2[nH]1`, the IC50 stood at 15.3 µM in assay [1], 7.83 µM in the assay on HT-29, 14.9 µM in assay [2] and 16.8 µM in assay [3].

For `Cc1ccc(NC(=S)NC(=O)c2ccc(OCc3ccc(C(F)(F)F)cc3)cc2)cc1-c1nc2ccccc2[nH]1`, the half-maximal inhibitory concentration (IC50) in assay [1] was found to be 72.4 µM; with HT-29 it was 17.6 µM; in assay [2] it was 6.5 µM; in assay [3], 10.2 µM.

For `Cc1ccc(COc2ccc(C(=O)NC(=S)Nc3ccc(C)c(-c4nc5ccccc5[nH]4)c3)cc2)cc1`, the IC50 in assay [1] worked out at 60.9 µM; in the assay with HT-29, 14.2 µM; in assay [2], 4.98 µM; in assay [3], 11.3 µM.

In the case of `Cc1ccc(NC(=S)NC(=O)c2ccc(OCc3ccccc3Cl)cc2)cc1-c1nc2ccccc2[nH]1`, the IC50 in assay [1] was 57.1 µM; in the assay on HT-29, 23.7 µM; in assay [2], 45 µM; in assay [3] it was 51.4 µM.

On to `Cc1ccc(COc2ccc(C(=O)NC(=O)Nc3ccc(C)c(-c4nc5ccccc5[nH]4)c3)cc2)cc1`, for which the half-inhibitory concentration (IC50) in assay [1] was found to be 26 µM; in the assay with HT-29, 5.11 µM; in assay [2] it was 4.25 µM; in assay [3] it was 6.36 µM.

Consider `Cc1ccc(NC(=S)NC(=O)c2ccc(OCc3cccc(Cl)c3)cc2)cc1-c1nc2ccccc2[nH]1`, for which the IC50 in assay [1] was more than 100 µM; with HT-29 it was 35.3 µM; in assay [2] it was 51.3 µM; in assay [3] it was 43.3 µM.

Regarding `Cc1ccc(NC(=S)NC(=O)c2ccc(OCc3ccccc3F)cc2)cc1-c1nc2ccccc2[nH]1`, the half-inhibitory concentration (IC50) in assay [1] was 6.44 µM; in the assay with HT-29, 1.87 µM; in assay [2], 3.07 µM; in assay [3] it was 2.42 µM; against Sonic hedgehog protein it was 0.158 µM.

Take `O=C(NC(=O)c1ccc(OCc2ccc(F)cc2)cc1)Nc1ccc(Cl)c(-c2nc3ccccc3[nH]2)c1`: the IC50 in assay [1] turned out to be 33.6 µM; in the assay on HT-29 it was 0.73 µM; in assay [2], 0.061 µM; in assay [3] it was 0.35 µM; against Sonic hedgehog protein it was 0.032 µM; on Protein smoothened, 0.042 µM.

In the case of `O=C(NC(=S)Nc1ccc(Cl)c(-c2nc3ccccc3[nH]2)c1)c1ccc(OCc2ccc(Cl)c(Cl)c2)cc1`, the half-inhibitory concentration (IC50) in assay [1] is 24.9 µM; with HT-29, 4.93 µM; in assay [2] it was 5.17 µM; in assay [3], 4.6 µM.

Take `Cc1ccc(NC(=O)NC(=O)c2ccc(OCc3ccccc3Cl)cc2)cc1-c1nc2ccccc2[nH]1`: the IC50 in assay [1] was found to be 35.7 µM; with HT-29 it was 9.01 µM; in assay [2] it was 19.5 µM; in assay [3], 21.5 µM.

In the case of `Cc1ccc(NC(=O)NC(=O)c2ccc(OCc3cccc(Cl)c3)cc2)cc1-c1nc2ccccc2[nH]1`, the IC50 is 16 µM in assay [1], 15.4 µM in the assay on HT-29, 20.8 µM in assay [2] and 28 µM in assay [3].

Consider `Cc1ccc(NC(=S)NC(=O)c2ccc(OCc3ccc(Cl)c(Cl)c3)cc2)cc1-c1nc2ccccc2[nH]1`, for which the half-maximal inhibitory concentration (IC50) in assay [1] came out at 30.7 µM; in the assay on HT-29 it was 6.27 µM; in assay [2], 6.39 µM; in assay [3], 8.41 µM.

For `Cc1ccc(NC(=S)NC(=O)c2ccc(OCc3ccc(Cl)cc3Cl)cc2)cc1-c1nc2ccccc2[nH]1`, the half-inhibitory concentration (IC50) in assay [1] came out at 57.2 µM; in the assay on HT-29, 11.6 µM; in assay [2], 3.45 µM; in assay [3], 5.3 µM.

Turning to `Cc1ccc(COc2ccc(C(=O)NC(=O)Nc3ccc(Cl)c(-c4nc5ccccc5[nH]4)c3)cc2)cc1`, the concentration for half-maximal inhibition (IC50) in assay [1] came out at 23.2 µM; with HT-29, 2.95 µM; in assay [2], 3.86 µM; in assay [3] it was 3.19 µM.

For `Cc1ccc(NC(=O)NC(=O)c2ccc(OCc3ccc(Cl)cc3Cl)cc2)cc1-c1nc2ccccc2[nH]1`, the IC50 in assay [1] was 12.2 µM; in the assay on HT-29 it was 2.62 µM; in assay [2], 2.74 µM; in assay [3], 2.55 µM.

For the compound `Cc1ccc(NC(=S)NC(=O)c2ccc(OCc3ccc(F)cc3)cc2)cc1-c1nc2ccccc2[nH]1`, the IC50 in assay [1] turned out to be 40.5 µM; in the assay on HT-29, 1.91 µM; in assay [2], 2.81 µM; in assay [3], 4.22 µM.

On to `Cc1ccc(NC(=S)NC(=O)c2ccc(OCc3cccc(Cl)c3Cl)cc2)cc1-c1nc2ccccc2[nH]1`, for which the IC50 in assay [1] was more than 100 µM; in the assay on HT-29 it was 63.7 µM; in assay [2], more than 100 µM; in assay [3] it was more than 100 µM.

Consider `Cc1ccc(NC(=S)NC(=O)c2ccc(OCc3cccc(C(F)(F)F)c3)cc2)cc1-c1nc2ccccc2[nH]1`, for which the 50% inhibitory concentration (IC50) in assay [1] is 15.4 µM; in the assay on HT-29 it was 8.2 µM; in assay [2], 5.21 µM; in assay [3], 6.05 µM.

For `Cc1ccc(NC(=O)NC(=O)c2ccc(OCc3ccc(Cl)c(Cl)c3)cc2)cc1-c1nc2ccccc2[nH]1`, the half-inhibitory concentration (IC50) in assay [1] was 6.1 µM; in the assay with HT-29, 1.03 µM; in assay [2], 6.08 µM; in assay [3], 5.82 µM.

For the compound `O=C(NC(=O)c1ccc(OCc2ccccc2F)cc1)Nc1ccc(Cl)c(-c2nc3ccccc3[nH]2)c1`, the IC50 is 2.93 µM in assay [1]; 0.59 µM in the assay with HT-29; 0.12 µM in assay [2]; 0.87 µM in assay [3]; 0.025 µM on Sonic hedgehog protein; 0.019 µM on Protein smoothened.

Take `Cc1ccc(NC(=S)NC(=O)c2ccc(OCc3ccccc3)cc2)cc1-c1nc2ccccc2[nH]1`: the half-inhibitory concentration (IC50) amounted to 67.1 µM in assay [1], 28.8 µM with HT-29, 60.7 µM in assay [2] and 57.8 µM in assay [3].

On to `Cc1ccc(NC(=O)NC(=O)c2ccc(OCc3ccc(F)cc3)cc2)cc1-c1nc2ccccc2[nH]1`, for which the half-inhibitory concentration (IC50) was determined as 35.1 µM in assay [1]; 0.98 µM in the assay with HT-29; 0.16 µM in assay [2]; 0.24 µM in assay [3]; 0.037 µM against Sonic hedgehog protein.

Turning to `Cc1ccc(NC(=O)NC(=O)c2ccc(OCc3cccc(Cl)c3Cl)cc2)cc1-c1nc2ccccc2[nH]1`, the IC50 was 42.1 µM in assay [1], 48.5 µM with HT-29, more than 100 µM in assay [2] and 87 µM in assay [3].

Regarding `O=C(NC(=S)Nc1ccc(Cl)c(-c2nc3ccccc3[nH]2)c1)c1ccc(OCc2ccc(C(F)(F)F)cc2)cc1`, the half-inhibitory concentration (IC50) in assay [1] is 63.9 µM; in the assay with HT-29 it was 12.9 µM; in assay [2] it was 5.33 µM; in assay [3], 7.83 µM.

Take `Cc1ccc(NC(=O)NC(=O)c2ccc(OCc3cccc(C(F)(F)F)c3)cc2)cc1-c1nc2ccccc2[nH]1`: the IC50 stood at 9.64 µM in assay [1], 3.52 µM in the assay on HT-29, 13.1 µM in assay [2] and 9.6 µM in assay [3].

As for `Cc1ccc(NC(=S)NC(=O)c2ccc(OCc3cccc(F)c3)cc2)cc1-c1nc2ccccc2[nH]1`, the IC50 is more than 100 µM in assay [1], 55.3 µM in the assay on HT-29, more than 100 µM in assay [2] and 86.8 µM in assay [3].

`O=C(NC(=S)Nc1ccc(Cl)c(-c2nc3ccccc3[nH]2)c1)c1ccc(OCc2ccc(Cl)cc2Cl)cc1`: the IC50 came to 50.2 µM in assay [1], 6.08 µM in the assay on HT-29, 3.03 µM in assay [2] and 3.75 µM in assay [3].

Turning to `CS(=O)(=O)c1ccc(C(=O)Nc2ccc(Cl)c(-c3ccccn3)c2)c(Cl)c1` [VISMODEGIB], the IC50 stood at 10.9 µM in assay [1]; 1.08 µM in the assay with HT-29; 2.39 µM in assay [2]; 2.88 µM in assay [3]; 0.013 µM at Sonic hedgehog protein.

(Values after ChEMBL document CHEMBL3739278, “Synthesis and evaluation of novel N-3-benzimidazolephenylbisamide derivatives for antiproliferative and Hedgehog pathway inhibitory activity” (Medchemcomm, 2015).)
